Series [1] relates to amastigote forms of L. (L.) infantum. Set-up: method as in number not given. The settings on record: previous studies; ref number not given; cited from earlier work.
The nature of series [2]: Cytotoxicity against mammalian cells (MTT). It is filed as cell-based. Particulars: mouse, NCTC clone 929 fibroblasts, NCTC clone 929 murine fibroblasts. The procedure: The cytotoxicity of the mixture of 1–10 was examined in cells of the NCTC lineage (clone 929) at a density of 6 × 10^4 cells per well. The cells were cultivated in 96-well plates containing different concentrations of the mixture, serially diluted using RPMI 1640 medium supplemented with 10% fetal bovine serum (FBS). Incubation took place over 48 h, in an incubator maintained at 37 °C with 5% CO2. The cell viability of NCTC cells (clone 929) was subsequently evaluated using the MTT colorimetric assay.

Series [3] relates to amastigote forms of T. cruzi. The series can be described thus: In vitro EC50 against intracellular amastigote forms of T. cruzi in peritoneal macrophages (Giemsa, infection index). The settings on record: Trypanosoma cruzi, Peritoneal macrophage; intracellular amastigotes, 48 h; read-out: T. cruzi EC50 AMA. It is filed as cell-based. How it is done: After collecting and counting the cells, they were seeded in Nunc brand 16-well plates and incubated for 18 h at 37 °C in an incubator containing 5% CO2. Nonadherent cells were then removed by washing with RPMI-1640 medium. Subsequently, the cells were infected with trypomastigotes at a ratio of 10:1 per well during an incubation period of 4 h. The mixture of compounds, previously diluted in series, was added and incubated for 48 h to determine the EC50 against amastigotes. After the incubation phase, the glass slides were fixed using MeOH for 5 min and then stained with Giemsa for 7 min. This procedure allowed for observation under a light microscope. The infection index was obtained in 200 macrophages/slide according to the formula: infected macrophages × number of amastigotes/total number of macrophages. Benznidazole was used as a standard drug. ,

Series [4] deals with trypomastigote forms of T. cruzi (strain Y). The series can be described thus: In vitro EC50 against trypomastigote forms of T. cruzi (resazurin viability). Format: cell-based. The settings on record: Trypanosoma cruzi; trypomastigotes, 24 h; read-out: T. cruzi EC50 TRYPO. The procedure: Trypomastigote forms (strain Y) of T. cruzi were obtained from Swiss mice (Mus musculus) previously infected intraperitoneally. The trypomastigote forms were used to infect LLC-MK2 cell cultures consisting of Macaca mulatta kidney epithelial cells (ATCC CCL 7) grown in RPMI-1640 medium containing 2% fetal bovine serum (FBS). The infected cell cultures were maintained in an incubator at 37 °C with 5% CO2, as previously described. , To evaluate the 50% effective concentration (EC50) against the trypomastigote forms of T. cruzi, mixture 1–10 was serially solubilized in the RPMI-1640 culture medium in 96-well plates. Subsequently, the trypomastigote forms of T. cruzi were added, at a concentration of 1 × 10^6 trypomastigotes per well. After an incubation period of 24 h at 37 °C with 5% CO2, to determine the viability of trypomastigotes, 20 μL of 10% Alamar Blue (resazurin) was added, followed by a new incubation of the plates for 20 h under the same conditions. At the end of the tests, the plates were read by absorption using a microplate spectrophotometer (Filter Max F5 Multi-Mode Microplate Reader) at 570 nm, as previously described. Benznidazole was used as a positive control, while cells not subjected to treatment were used as a negative control.
Background: Alamar Blue is a resazurin reagent that responds to reducing activity.

For a further series, the system named is T. cruzi. Set-up: method as in number not given. The settings on record: literature data; ref number not given; cited from earlier work.
The next series concerns mammalian cells. The arrangement: method as in number not given. Particulars: literature data; ref number not given; cited from earlier work.
Series [5] has as its system trypomastigote forms of T. cruzi. Set-up: method as in number not given. The settings on record: previous studies; ref number not given; cited from earlier work.
The next series deals with T. cruzi epimastigotes. The arrangement: method as in number not given. Particulars: literature data; ref number not given; cited from earlier work.

Structures are written as SMILES. In brackets after ≈: the same amount, converted by molar mass.

With `C=CCCCCCCC#CCCCCCCCCCCCC(=O)O` [Compound 2, docos-21-en-13-inoic acid], in series [1], the “in vitro activity against amastigote forms of L. (L.) infantum” value is “in vitro activity”.
For orientation: CC50 means the concentration giving 50% cytotoxicity. A low value points to greater toxicity to the cells. As a reminder, the EC50 is the midpoint of the concentration-response curve. In series [2], `O=C(Cn1ccnc1[N+](=O)[O-])NCc1ccccc1` [benznidazole] gave a CC50 at 48 h above 200 µg/mL. In addition, the values for the EC50 in series [3] and in series [4] were 0.9 ± 0.2 µg/mL (≈ 3.46 µM) and 3.9 ± 1.2 µg/mL (≈ 15 µM), respectively.
As for `CCCCCCCCCCCCCCCCCC(=O)O` [stearic acid], the “activity against T. cruzi” value in the series on T. cruzi is “inactivity”.
Turning to `CCCC#CC#CCCCCCCCCCCC(=O)O` [macrocarpathic acid, 12,14-octadecadiinoic acid], the “cytotoxic effect on mammalian cells” value with mammalian cells was “cytotoxic effect”.
For `CCCCCCCCC#CCCCCCCCC(=O)O` [9-octadecinoic acid], in series [5], the “activity against trypomastigote forms of T. cruzi” value is given as “effective results”. In addition, in the series on T. cruzi epimastigotes, the “inhibition of growth of T. cruzi epimastigotes” value is “inhibitory capacity”.

The values are drawn from publication PMC12138661, “Anti-Trypanosoma cruzi Effect of Fatty Acids from Porcelia macrocarpa Is Related to Interactions of Cell Membranes at Different Microdomains as Assessed Using Langmuir Monolayers” (ACS Omega, 2025).
